Drawing on patent US11091501B2, “Heterocyclic compounds as RSV inhibitors” (Enanta Pharmaceuticals, Inc., priority 2017, dated 2021), this text covers EC50 for 50 molecules.

A word on the EC50: it is the concentration giving half of the maximal effect.

For this assay, the system named is Human RSV-A (“Long” strain). The assay is described as follows: RSV in vitro cytoprotection assay (CPE, ATPlite) in HEp-2 cells. In kind it is cell-based. To be noted: human respiratory syncytial virus, 96 h; HEp-2 cells, 4-day incubation, ATPlite readout; read-out: Human RSV-A (“Long” strain) EC50. The essentials: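 HEp-2 cells (8,000/well) given 2-fold serial compound dilutions in duplicate, then infected with sucrose-stabilised RSV-A Long stock. After 4 days, cell viability read by ATPlite luminescence, with a parallel uninfected plate for cytotoxicity. EC50 binned A<0.01 μM, B 0.01-0.05 μM, C>0.05 μM.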
On the technique in general: Cellular ATP, detected with luciferase, serves as a proxy for viable cell number.
For the molecule `Cc1cnc(N2CC3(CCOCC3)C2)c(C(=O)Nc2ccc(C(=O)N3CCc4c(sc(C(=O)Nc5cccc(F)c5)c4F)-c4ccccc43)cc2)c1` [Example 210], the concentration for a half-maximal effect (EC50) is < 0.01 µM.

On to `Cc1cnc(N2CC3(CCOCC3)C2)c(C(=O)Nc2ccc(C(=O)N3CCc4c(sc(C(=O)Nc5ccccc5)c4F)-c4ccccc43)cc2)c1` [Example 211], for which the half-maximal effective concentration (EC50) is < 0.01 µM.

On to `Cc1cnc(N2CC3(CCOCC3)C2)c(C(=O)Nc2ccc(C(=O)N3CCc4c(sc(C(=O)Nc5cc(F)ccc5F)c4F)-c4ccccc43)cc2)c1` [Example 212], for which the concentration giving a half-maximal response (EC50) is 0.01 to 0.05 µM.

For `Cc1ccc(C(=O)Nc2ccc(C(=O)N3CCc4c(sc(C(=O)Nc5c(F)cccc5F)c4F)-c4ccccc43)cc2)c(N2CC3(CCOCC3)C2)n1` [Example 213], the 50% effective concentration (EC50) is < 0.01 µM.

In the case of `Cc1ccc(C(=O)Nc2ccc(C(=O)N3CCc4c(sc(-c5nc6cccc(F)c6[nH]5)c4F)-c4ccccc43)cc2)c(N2CC3(CCOCC3)C2)n1` [Example 214], the EC50 is < 0.01 µM.

Turning to `Cc1cnc(N2CC3(CCOCC3)C2)c(C(=O)Nc2ccc(C(=O)N3CCc4c(sc(C(=O)Nc5ncccc5F)c4F)-c4ccccc43)cc2)c1` [Example 215], the EC50 is < 0.01 µM.

With `Cc1cnc(N2CC3(CCOCC3)C2)c(C(=O)Nc2ccc(C(=O)N3CCc4c(sc(C(=O)Nc5cccc(F)c5F)c4F)-c4ccccc43)cc2)c1` [Example 216], the concentration for a half-maximal effect (EC50) is < 0.01 µM.

In the case of `Cc1cnc(N2CC3(CCOCC3)C2)c(C(=O)Nc2ccc(C(=O)N3CCc4c(sc(C(=O)Nc5ccc(F)cc5)c4F)-c4ccccc43)cc2)c1` [Example 217], the concentration for a half-maximal effect (EC50) is < 0.01 µM.

For the molecule `Cc1ccc(C(=O)Nc2ccc(C(=O)N3CCc4c(sc(C(=O)Nc5ncccc5F)c4F)-c4ccccc43)cc2)c(N2CC3(CCOCC3)C2)n1` [Example 218], the EC50 is < 0.01 µM.

As for `Cc1cnc(N2CC3(CCOCC3)C2)c(C(=O)Nc2ccc(C(=O)N3CCc4c(sc(C(=O)Nc5nc(C)ccc5F)c4F)-c4ccccc43)cc2)c1` [Example 219], the EC50 was < 0.01 µM.

Turning to `Cc1cc(C(=O)Nc2ccc(C(=O)N3CCc4c(sc(C(=O)Nc5c(F)cccc5F)c4F)-c4ccccc43)cc2)c(N2CC3(CCOCC3)C2)nc1C` [Example 220], the 50% effective concentration (EC50) was < 0.01 µM.

Take `Cc1cc(C(=O)Nc2ccc(C(=O)N3CCc4c(sc(C(=O)Nc5ncccc5F)c4F)-c4ccccc43)cc2)c(N2CC3(CCOCC3)C2)nc1C` [Example 221]: the half-maximal effective concentration (EC50) was < 0.01 µM.

`Cc1cnc(N2CC3(CCOCC3)C2)c(C(=O)Nc2ccc(C(=O)N3CCc4c(sc(C(=O)Nc5ncncc5F)c4F)-c4ccccc43)cc2)c1` [Example 222]: the half-maximal effective concentration (EC50) was < 0.01 µM.

As to `Cc1cnc(N2CC3(CCOCC3)C2)c(C(=O)Nc2ccc(C(=O)N3CCc4c(sc(C(=O)Nc5ncc(C)s5)c4F)-c4ccccc43)cc2)c1` [Example 223], the EC50 was 0.01 to 0.05 µM.

`Cc1cnc(N2CC3(CCOCC3)C2)c(C(=O)Nc2ccc(C(=O)N3CCc4c(sc(C(=O)Nc5ncc(F)s5)c4F)-c4ccccc43)cc2)c1` [Example 224]: the concentration giving a half-maximal response (EC50) fell in the range of 0.01 to 0.05 µM.

`Cc1cnc(N2CC3(CCOCC3)C2)c(C(=O)Nc2ccc(C(=O)N3CCc4c(sc(C(=O)Nc5ncc(C(F)(F)F)s5)c4F)-c4ccccc43)cc2)c1` [Example 225]: the EC50 was > 0.05 µM.

Consider `Cc1cnc(N2CC3(CCOCC3)C2)c(C(=O)Nc2ccc(C(=O)N3CCc4c(sc(C(=O)Nc5ncccc5C)c4F)-c4ccccc43)cc2)c1` [Example 226], for which the EC50 was < 0.01 µM.

Consider `Cc1ccnc(NC(=O)c2sc3c(c2F)CCN(C(=O)c2ccc(NC(=O)c4cc(C)cnc4N4CC5(CCOCC5)C4)cc2)c2ccccc2-3)c1` [Example 227], for which the EC50 lay within 0.01 to 0.05 µM.

Regarding `Cc1ccc(NC(=O)c2sc3c(c2F)CCN(C(=O)c2ccc(NC(=O)c4cc(C)cnc4N4CC5(CCOCC5)C4)cc2)c2ccccc2-3)nc1` [Example 228], the EC50 was in the range of 0.01 to 0.05 µM.

`Cc1cnc(N2CC3(CCOCC3)C2)c(C(=O)Nc2ccc(C(=O)N3CCc4c(sc(C(=O)Nc5cccc(C)n5)c4F)-c4ccccc43)cc2)c1` [Example 229]: the half-maximal effective concentration (EC50) lay in the range of 0.01 to 0.05 µM.

On to `Cc1cnc(NC(=O)c2sc3c(c2F)CCN(C(=O)c2ccc(NC(=O)c4cc(C)cnc4N4CC5(CCOCC5)C4)cc2)c2ccccc2-3)c(F)c1` [Example 230], for which the concentration for a half-maximal effect (EC50) is < 0.01 µM.

As for `Cc1cnc(N2CC3(CCOCC3)C2)c(C(=O)Nc2ccc(C(=O)N3CCc4c(sc(C(=O)Nc5ncccc5C(F)(F)F)c4F)-c4ccccc43)cc2)c1` [Example 231], the 50% effective concentration (EC50) is < 0.01 µM.

Take `Cc1cnc(N2CC3(CCOCC3)C2)c(C(=O)Nc2ccc(C(=O)N3CCc4c(sc(C(=O)Nc5cccc(C(F)(F)F)n5)c4F)-c4ccccc43)cc2)c1` [Example 232]: the EC50 is > 0.05 µM.

Consider `O=C(Nc1ccc(C(=O)N2CCc3c(sc(C(=O)Nc4c(F)cccc4F)c3F)-c3ccccc32)cc1)c1cc2c(nc1N1CC3(CCOCC3)C1)CCC2` [Example 233], for which the EC50 was < 0.01 µM.

`Cc1cnc(N2CC3(CCOCC3)C2)c(C(=O)Nc2ccc(C(=O)N3CCc4cc(C(=O)Nc5c(F)cccc5F)oc4-c4ccc(F)cc43)cc2)c1` [Example 234]: the EC50 is < 0.01 µM.

With `Cc1cnc(N2CC3(CCOCC3)C2)c(C(=O)Nc2ccc(C(=O)N3CCc4cc(C(=O)Nc5c(F)cc(F)cc5Cl)oc4-c4ccc(F)cc43)cc2)c1` [Example 235], the EC50 was < 0.01 µM.

As for `Cc1cnc(N2CC3(CCOCC3)C2)c(C(=O)Nc2ccc(C(=O)N3CCc4cc(C(=O)Nc5c(Cl)cccc5Cl)oc4-c4ccc(F)cc43)cc2)c1` [Example 236], the half-maximal effective concentration (EC50) is < 0.01 µM.

Regarding `Cc1cnc(N2CC3(CCOCC3)C2)c(C(=O)Nc2ccc(C(=O)N3CCc4cc(C(=O)Nc5c(F)cccc5Cl)oc4-c4ccc(F)cc43)cc2)c1` [Example 237], the 50% effective concentration (EC50) is < 0.01 µM.

As for `O=C(Nc1c(F)cccc1Cl)c1cc2c(o1)-c1ccc(F)cc1N(C(=O)c1ccc(NC(=O)c3cc4c(nc3N3CC5(CCOCC5)C3)CCCC4)cc1)CC2` [Example 238], the concentration giving a half-maximal response (EC50) lay within 0.01 to 0.05 µM.

Turning to `O=C(Nc1c(F)cccc1F)c1cc2c(o1)-c1ccc(F)cc1N(C(=O)c1ccc(NC(=O)c3cc4c(nc3N3CC5(CCOCC5)C3)CCC4)cc1)CC2` [Example 239], the EC50 is < 0.01 µM.

Take `O=C(Nc1c(F)cccc1Cl)c1cc2c(o1)-c1ccc(F)cc1N(C(=O)c1ccc(NC(=O)c3cc4c(nc3N3CC5(CCOCC5)C3)CCC4)cc1)CC2` [Example 240]: the EC50 was < 0.01 µM.

Regarding `O=C(Nc1c(F)cccc1F)c1cc2c(o1)-c1ccc(F)cc1N(C(=O)c1ccc(NC(=O)c3cc4c(nc3N3CC5(CCOCC5)C3)CCCC4)cc1)CC2` [Example 241], the 50% effective concentration (EC50) is < 0.01 µM.

Turning to `O=C(Nc1c(Cl)cccc1Cl)c1cc2c(o1)-c1ccc(F)cc1N(C(=O)c1ccc(NC(=O)c3cc4c(nc3N3CC5(CCOCC5)C3)CCCC4)cc1)CC2` [Example 242], the 50% effective concentration (EC50) was < 0.01 µM.

As to `Cc1cnc(N2CC3(CCOCC3)C2)c(C(=O)Nc2ccc(C(=O)N3CCc4cc(-c5nc6ccccc6[nH]5)oc4-c4ccc(F)cc43)cc2)c1` [Example 243], the 50% effective concentration (EC50) is < 0.01 µM.

`O=C(Nc1ccc(C(=O)N2CCc3cc(-c4nc5ccccc5[nH]4)oc3-c3ccc(F)cc32)cc1)c1cc2c(nc1N1CC3(CCOCC3)C1)CCC2` [Example 244]: the half-maximal effective concentration (EC50) is < 0.01 µM.

Take `O=C(Nc1ccc(C(=O)N2CCc3cc(-c4nc5ccccc5[nH]4)oc3-c3ccc(F)cc32)cc1)c1cc2c(nc1N1CC3(CCOCC3)C1)CCCC2` [Example 245]: the concentration for a half-maximal effect (EC50) was 0.01 to 0.05 µM.

For the molecule `O=C(Nc1ccccc1)c1cc2c(o1)-c1ccccc1N(C(=O)c1ccc(NC(=O)c3cc4c(nc3N3CC5(CCOCC5)C3)CCC4)cc1)CC2` [Example 246], the EC50 was < 0.01 µM.

Regarding `O=C(Nc1c(F)cccc1F)c1cc2c(o1)-c1ccccc1N(C(=O)c1ccc(NC(=O)c3cc4c(nc3N3CC5(CCOCC5)C3)CCC4)cc1)CC2` [Example 247], the EC50 is < 0.01 µM.

Regarding `O=C(Nc1c(F)cccc1C(F)(F)F)c1cc2c(o1)-c1ccccc1N(C(=O)c1ccc(NC(=O)c3cc4c(nc3N3CC5(CCOCC5)C3)CCC4)cc1)CC2` [Example 248], the concentration giving a half-maximal response (EC50) was < 0.01 µM.

`O=C(Nc1c(F)cccc1Cl)c1cc2c(o1)-c1ccccc1N(C(=O)c1ccc(NC(=O)c3cc4c(nc3N3CC5(CCOCC5)C3)CCC4)cc1)CC2` [Example 249]: the EC50 is < 0.01 µM.

Regarding `Cc1cccc(F)c1NC(=O)c1cc2c(o1)-c1ccccc1N(C(=O)c1ccc(NC(=O)c3cc4c(nc3N3CC5(CCOCC5)C3)CCC4)cc1)CC2` [Example 250], the EC50 is < 0.01 µM.

Regarding `O=C(Nc1c(Cl)cccc1Cl)c1cc2c(o1)-c1ccccc1N(C(=O)c1ccc(NC(=O)c3cc4c(nc3N3CC5(CCOCC5)C3)CCC4)cc1)CC2` [Example 251], the EC50 is < 0.01 µM.

As to `Cc1cccc(C)c1NC(=O)c1cc2c(o1)-c1ccccc1N(C(=O)c1ccc(NC(=O)c3cc4c(nc3N3CC5(CCOCC5)C3)CCC4)cc1)CC2` [Example 252], the EC50 was < 0.01 µM.

Regarding `O=C(Nc1c(F)cc(F)cc1F)c1cc2c(o1)-c1ccccc1N(C(=O)c1ccc(NC(=O)c3cc4c(nc3N3CC5(CCOCC5)C3)CCC4)cc1)CC2` [Example 253], the EC50 was < 0.01 µM.

In the case of `Cc1ccc(C(=O)Nc2ccc(C(=O)N3CCc4cc(C(=O)Nc5c(F)cccc5F)oc4-c4ccccc43)cc2)c(N2CC3(CCOCC3)C2)n1` [Example 254], the EC50 is < 0.01 µM.

For the molecule `O=C(Nc1ccccc1F)c1cc2c(o1)-c1ccccc1N(C(=O)c1ccc(NC(=O)c3cc4c(nc3N3CC5(CCOCC5)C3)CCC4)cc1)CC2` [Example 255], the EC50 was < 0.01 µM.

Turning to `Cc1ccc(C(=O)Nc2ccc(C(=O)N3CCc4cc(C(=O)Nc5c(C)cccc5F)oc4-c4ccccc43)cc2)c(N2CC3(CCOCC3)C2)n1` [Example 256], the EC50 was < 0.01 µM.

On to `Cc1ccc(C(=O)Nc2ccc(C(=O)N3CCc4cc(C(=O)Nc5c(F)cc(F)cc5F)oc4-c4ccccc43)cc2)c(N2CC3(CCOCC3)C2)n1` [Example 257], for which the concentration giving a half-maximal response (EC50) is < 0.01 µM.

Consider `Cc1ccc(C(=O)Nc2ccc(C(=O)N3CCc4cc(C(=O)Nc5ccccc5F)oc4-c4ccccc43)cc2)c(N2CC3(CCOCC3)C2)n1` [Example 258], for which the concentration giving a half-maximal response (EC50) is < 0.01 µM.

Regarding `Cc1ccc(C(=O)Nc2ccc(C(=O)N3CCc4cc(C(=O)Nc5c(F)cccc5Cl)oc4-c4ccccc43)cc2)c(N2CC3(CCOCC3)C2)n1` [Example 259], the concentration for a half-maximal effect (EC50) was < 0.01 µM.
